pIC50: −log10 of the molar value. Values belong to the molecule of their own block, whether it stands above or below them. Where a SMILES comes first, the peptide text is derived from it. The star is where a group is joined. X1 = CCN(CC)CCCCC(C)Nc1c2ccccc2nc2c(C(=O)NCCCO/N=C/C(=O)*)cccc12
Key:
Acetylcholinesterase [1] = molecular target: T1, Acetylcholinesterase (Mus musculus, UniProt P21836); assay: Inhibition of AChE in mouse brain; type: tissue-based
T1 sequence (P21836 whole entry): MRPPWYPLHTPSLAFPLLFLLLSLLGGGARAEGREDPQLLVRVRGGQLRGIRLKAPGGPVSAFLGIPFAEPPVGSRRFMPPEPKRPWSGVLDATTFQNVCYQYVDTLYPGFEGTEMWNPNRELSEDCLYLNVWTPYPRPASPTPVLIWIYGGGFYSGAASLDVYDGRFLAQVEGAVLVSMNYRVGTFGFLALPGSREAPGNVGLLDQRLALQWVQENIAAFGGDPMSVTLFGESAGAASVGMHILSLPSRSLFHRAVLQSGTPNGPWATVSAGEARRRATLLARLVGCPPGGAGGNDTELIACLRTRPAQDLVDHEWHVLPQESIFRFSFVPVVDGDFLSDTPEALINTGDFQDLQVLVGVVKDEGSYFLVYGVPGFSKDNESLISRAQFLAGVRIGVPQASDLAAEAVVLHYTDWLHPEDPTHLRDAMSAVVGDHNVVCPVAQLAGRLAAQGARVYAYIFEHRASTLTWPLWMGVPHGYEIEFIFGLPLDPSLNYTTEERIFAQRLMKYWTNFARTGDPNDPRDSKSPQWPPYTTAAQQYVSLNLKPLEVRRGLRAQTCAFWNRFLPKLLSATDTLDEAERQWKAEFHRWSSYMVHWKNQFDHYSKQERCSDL

DNA = assay: Binding affinity to DNA (unknown origin); type: nucleic-acid assay
Calf thymus DNA = assay: Binding affinity to calf thymus DNA; type: nucleic-acid assay; details: Bos taurus
Acetylcholinesterase [2] = molecular target: Acetylcholinesterase (Homo sapiens, UniProt P22303); assay: Inhibition of AChE (unknown origin)
Sequence of Acetylcholinesterase (Homo sapiens, UniProt P22303) (P22303 whole entry): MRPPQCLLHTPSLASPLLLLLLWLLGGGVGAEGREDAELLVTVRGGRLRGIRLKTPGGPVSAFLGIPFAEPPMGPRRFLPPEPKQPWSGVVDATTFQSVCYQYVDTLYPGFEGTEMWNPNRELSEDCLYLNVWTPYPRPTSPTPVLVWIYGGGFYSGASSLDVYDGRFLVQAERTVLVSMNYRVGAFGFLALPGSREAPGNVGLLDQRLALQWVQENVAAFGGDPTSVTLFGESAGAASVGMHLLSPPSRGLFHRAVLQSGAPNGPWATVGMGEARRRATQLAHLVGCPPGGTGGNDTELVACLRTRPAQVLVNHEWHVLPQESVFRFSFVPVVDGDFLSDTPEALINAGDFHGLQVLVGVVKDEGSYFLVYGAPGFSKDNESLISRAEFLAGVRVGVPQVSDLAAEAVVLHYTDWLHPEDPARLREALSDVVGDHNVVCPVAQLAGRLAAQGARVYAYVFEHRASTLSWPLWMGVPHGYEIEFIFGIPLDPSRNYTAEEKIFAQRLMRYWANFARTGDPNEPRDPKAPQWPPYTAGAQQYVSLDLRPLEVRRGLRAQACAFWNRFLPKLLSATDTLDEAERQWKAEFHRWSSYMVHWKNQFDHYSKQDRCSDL

Cholinesterase = Cholinesterase (Homo sapiens, UniProt P06276); assay: Inhibition of BuChE (unknown origin)
Sequence of Cholinesterase (P06276 whole entry): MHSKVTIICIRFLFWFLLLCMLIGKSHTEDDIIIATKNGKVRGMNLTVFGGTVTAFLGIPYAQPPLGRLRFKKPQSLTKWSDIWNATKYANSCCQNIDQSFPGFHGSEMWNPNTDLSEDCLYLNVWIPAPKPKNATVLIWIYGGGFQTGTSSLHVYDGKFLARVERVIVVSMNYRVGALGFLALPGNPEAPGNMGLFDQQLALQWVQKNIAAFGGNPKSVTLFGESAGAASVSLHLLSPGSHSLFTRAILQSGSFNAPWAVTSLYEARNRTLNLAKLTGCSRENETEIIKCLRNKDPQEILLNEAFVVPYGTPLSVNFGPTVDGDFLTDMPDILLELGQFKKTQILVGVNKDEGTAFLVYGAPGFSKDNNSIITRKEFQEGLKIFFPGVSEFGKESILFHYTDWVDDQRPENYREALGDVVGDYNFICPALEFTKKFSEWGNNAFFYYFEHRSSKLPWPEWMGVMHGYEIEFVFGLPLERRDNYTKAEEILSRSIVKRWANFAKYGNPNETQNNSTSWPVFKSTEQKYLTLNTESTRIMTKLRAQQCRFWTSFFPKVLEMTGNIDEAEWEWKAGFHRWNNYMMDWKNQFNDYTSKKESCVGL

[3] = molecular target: Amyloid-beta precursor protein (Homo sapiens, UniProt P05067); assay: Inhibition of amyloid beta (1 to 40) (unknown origin) self aggregation
Sequence of Amyloid-beta precursor protein (P05067 whole entry): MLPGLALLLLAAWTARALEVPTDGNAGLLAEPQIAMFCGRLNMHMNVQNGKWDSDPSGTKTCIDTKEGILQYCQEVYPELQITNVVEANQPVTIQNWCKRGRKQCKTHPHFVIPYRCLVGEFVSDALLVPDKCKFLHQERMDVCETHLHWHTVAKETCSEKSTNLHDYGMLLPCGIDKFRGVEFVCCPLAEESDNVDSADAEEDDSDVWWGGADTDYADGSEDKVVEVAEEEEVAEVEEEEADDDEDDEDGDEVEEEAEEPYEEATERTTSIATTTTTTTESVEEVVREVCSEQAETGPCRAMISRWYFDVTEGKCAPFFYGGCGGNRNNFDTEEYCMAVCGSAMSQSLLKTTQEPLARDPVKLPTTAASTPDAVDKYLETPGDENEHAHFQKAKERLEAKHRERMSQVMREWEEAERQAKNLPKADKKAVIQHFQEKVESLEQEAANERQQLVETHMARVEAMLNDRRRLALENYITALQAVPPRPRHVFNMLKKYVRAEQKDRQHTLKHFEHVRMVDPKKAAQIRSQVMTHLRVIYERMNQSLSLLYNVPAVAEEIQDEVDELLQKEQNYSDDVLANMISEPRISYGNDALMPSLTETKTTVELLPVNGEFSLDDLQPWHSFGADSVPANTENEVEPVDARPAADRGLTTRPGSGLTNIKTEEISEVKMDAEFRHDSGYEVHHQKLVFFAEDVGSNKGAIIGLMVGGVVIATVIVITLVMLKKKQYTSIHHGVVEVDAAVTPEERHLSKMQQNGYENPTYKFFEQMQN

SMILES: Fc1ccc(N2CCN(c3c4ccccc4nc4c(Cl)cccc34)CC2)cc1
pIC50 (Acetylcholinesterase [1]): 6.48

K (DNA): 1 ×10⁴ /M
SMILES: COc1ccc2nc3cc(Cl)ccc3c(Nc3sc4c(c3C#N)CCC4)c2c1

K (Calf thymus DNA): 10000 to 1e+06 M⁻¹
SMILES: COc1cc2nc3cc([N+](=O)[O-])ccc3c(NCCCNCCCNCCn3cnc4c(N)ncnc43)c2cc1OC

K (DNA): 1 ×10⁴ /M
SMILES: N#Cc1c(/N=C/c2c3ccccc3nc3ccccc23)sc2c1CCC2

K (DNA): 1 ×10⁴ /M
SMILES: NC(=O)c1c(/N=C/c2c3ccccc3nc3ccccc23)sc2c1CCC2

K (Calf thymus DNA): 10000 to 1e+06 M⁻¹
SMILES: COc1ccc2nc3cc(Cl)ccc3c(NCCCNCCCNCCn3cnc4c(N)ncnc43)c2c1

SMILES: O=C(NCCCCCNc1c2c(nc3ccccc13)CCCC2)c1c2ccccc2nc2ccccc12
pIC50 (Acetylcholinesterase [2]): 11.12 | pIC50 (Cholinesterase): 11.77

SMILES: O=C(/C=C/c1ccc([N+](=O)[O-])cc1)NCCCCCCNc1c2c(nc3ccccc13)CCCC2
pIC50 (Acetylcholinesterase [2]): 8.57 | pIC50 (Cholinesterase): 8.19

K (Calf thymus DNA): 10000 to 1e+06 M⁻¹
SMILES: COc1ccc2c(NCCCNCCCNCCn3cnc4c(N)nc(N)nc43)c3cc(Cl)ccc3nc2c1

K (Calf thymus DNA): 10000 to 1e+06 M⁻¹
SMILES: CCOc1ccc2nc3cc(N)ccc3c(NCCCNCCCNCCn3cnc4c(N)ncnc43)c2c1

pIC50 [3]: 5.70
SMILES: CCN(CC)CCCCC(C)Nc1c2ccccc2nc2c(C(=O)NCCCO/N=C/C(=O)NCCCC[C@@H]3NC(=O)CNC(=O)[C@@H]4CCCN4C(=O)[C@H](CCCCN)NC(=O)[C@@H]4CCCN4C(=O)[C@H](CCCCN)NC(=O)CNC(=O)[C@@H]4CCCN4C(=O)[C@H](CCCCN)NC(=O)[C@@H]4CCCN4C3=O)cccc12 (stereo partly specified) (cyclo(GKPKPGK(X1)PKP))

K (DNA): 1 ×10⁴ /M
SMILES: CCOC(=O)c1c(/N=C/c2c3ccccc3nc3ccccc23)sc2c1CCC2

SMILES: Cc1cc(C)c(S(=O)(=O)Nc2ccc(C3C4=C(CC(C)(C)CC4=O)N(c4ccc(Br)cc4)C4=C3C(=O)CC(C)(C)C4)cc2)c(C)c1
pIC50 (Acetylcholinesterase [2]): 6.85

K (Calf thymus DNA): 10000 to 1e+06 M⁻¹
SMILES: CCOc1ccc2nc3c(I)c(N)ccc3c(NCCCNCCCNCCn3cnc4c(N)ncnc43)c2c1
